# Experimental data as given in patent publication US20050004200A1, “Pyrazole compounds as integrin receptor antagonists derivatives” (Pharmacia Corporation, priority 2002, published 2005).
# Experiment: plasma level upon oral dosing (AUC-PO)
# Settings: plasma AUC normalised to dose
row,Rat AUC-PO/dose [µg·h/mL/mg/kg],Molecule
1,0.9,"Cn1nc(CC(CC(=O)O)c2ccc3c(c2)OCO3)cc1OCCc1ccc2c(n1)NCCC2 (centres unmarked) [Example 1, 3-(1,3-benzodioxol-5-yl)-4-{1-methyl-5-[2-(5,6,7,8-tetrahydro-1,8-naphthyridin-2-yl)ethoxy]-1H-pyrazol-3-yl}butanoic acid]"
2,1,"Cn1nc(CC(CC(=O)O)c2cnc(-c3ccc(Cl)cc3)s2)cc1OCCc1ccc2c(n1)NCCC2 (centres unmarked) [Example 2, 3-[2-(4-chlorophenyl)-1,3-thiazol-5-yl]-4-{1-methyl-5-[2-(5,6,7,8-tetrahydro-1,8-naphthyridin-2-yl)ethoxy]-1H-pyrazol-3-yl}butanoic acid]"
3,2.2,"Cn1nc(CC(CC(=O)O)c2ccc3c(c2)OCO3)cc1SCCc1ccc2c(n1)NCCC2 (centres unmarked) [Example 3, 3-(1,3-benzodioxol-5-yl)-4-(1-methyl-5-{[2-(5,6,7,8-tetrahydro-1,8-naphthyridin-2-yl)ethyl]thio}-1H-pyrazol-3-yl)butanoic acid]"
4,0.7,"Cn1nc(CC(CC(=O)O)c2ccc3c(c2)OCO3)cc1S(=O)(=O)CCc1ccc2c(n1)NCCC2 (centres unmarked) [Example 4, 3-(1,3-benzodioxol-5-yl)-4-(1-methyl-5-{[2-(5,6,7,8-tetrahydro-1,8-naphthyridin-2-yl)ethyl]sulfonyl}-1H-pyrazol-3-yl)butanoic acid]"
5,1.1,"Cl.Cn1nc(CC(CC(=O)O)c2cnc(C3CC3)s2)cc1OCCc1ccc2c(n1)NCCC2 (centres unmarked) [Example 6, 3-(2-cyclopropyl-1,3-thiazol-5-yl)-4-{1-methyl-5-[2-(5,6,7,8-tetrahydro-1,8-naphthyridin-2-yl)ethoxy]-1H-pyrazol-3-yl}butanoic acid]"
6,0.8,"COc1ccc(C(CC(=O)O)Cc2cc(OCCc3ccc4c(n3)NCCN4C)n(C)n2)cn1 (centres unmarked) [Example 7, 3-(6-methoxypyridin-3-yl)-4-{1-methyl-5-[2-(1-methyl-1,2,3,4-tetrahydropyrido[2,3-b]pyrazin-6-yl)ethoxy]-1H-pyrazol-3-yl}butanoic acid]"
7,0.7,"CNc1cccc(CCOc2cc(CC(CC(=O)O)c3ccc4c(c3)OCO4)nn2C)n1 (centres unmarked) [Example 8, 3-(1,3-benzodioxol-5-yl)-4-(1-methyl-5-{2-[6-(methylamino)pyridin-2-yl]ethoxy}-1H-pyrazol-3-yl)butanoic acid]"
8,1.7,"O=C(O)CC(Cc1cc(OCCc2ccc3c(n2)NCCC3)n(-c2ccccc2)n1)c1ccc2c(c1)OCO2 (centres unmarked) [Example 21, 3-(1,3-benzodioxol-5-yl)-4-{1-phenyl-5-[2-(5,6,7,8-tetrahydro-1,8-naphthyridin-2-yl)ethoxy]-1H-pyrazol-3-yl}butanoic acid]"
9,0.8,"COc1ccc(C(CC(=O)O)Cc2cc(OCCc3ccc4c(n3)NCCC4)n(CC(F)(F)F)n2)cn1 (centres unmarked) [Example 23, 3-(6-methoxypyridin-3-yl)-4-[5-[2-(5,6,7,8-tetrahydro-1,8-naphthyridin-2-yl)ethoxy]-1-(2,2,2-trifluoroethyl)-1H-pyrazol-3-yl]butanoic acid]"
10,0.4,"Cn1nc(CC(CC(=O)O)c2ccc3c(c2)OCO3)cc1OCCc1ccc2c(n1)NCCN2 (centres unmarked) [Example 25, 3-(1,3-benzodioxol-5-yl)-4-{1-methyl-5-[2-(1,2,3,4-tetrahydropyrido[2,3-b]pyrazin-6-yl)ethoxy]-1H-pyrazol-3-yl}butanoic acid]"
11,0.9,"O=C(O)CC(Cc1cc(OCCc2ccc3c(n2)NCCN3)n(CC(F)(F)F)n1)c1ccc2c(c1)OCO2 (centres unmarked) [Example 26, 3-(1,3-benzodioxol-5-yl)-4-[5-[2-(1,2,3,4-tetrahydropyrido[2,3-b]pyrazin-6-yl)ethoxy]-1-(2,2,2-trifluoroethyl)-1H-pyrazol-3-yl]butanoic acid]"
12,1.9,"CN1CCNc2nc(CCOc3cc(CC(CC(=O)O)c4ccc5c(c4)OCO5)nn3C)ccc21 (centres unmarked) [Example 31, 3-(1,3-benzodioxol-5-yl)-4-{1-methyl-5-[2-(1-methyl-1,2,3,4-tetrahydropyrido[2,3-b]pyrazin-6-yl)ethoxy]-1H-pyrazol-3-yl}butanoic acid]"
13,2.2,"Cc1cc(CCOc2cc(CC(CC(=O)O)c3ccc4c(c3)OCO4)nn2C)nc2c1CCCN2 (centres unmarked) [Example 32, 3-(1,3-Benzodioxol-5-yl)-4-{1-methyl-5-[2-(4-methyl-5,6,7,8-tetrahydro-1,8-naphthyridin-2-yl)ethoxy]-1H-pyrazol-3-yl}butanoic acid]"

# Experiment: not given
# Settings: in vivo
row,Rat AUC-PO/dose [µg·h/mL/mg/kg],Molecule
1,2,"3-(1,3-benzodioxol-5-yl)-4-[5-[2-(1-methyl-1,2,3,4-tetrahydropyrido[2,3-b]pyrazin-6-yl)ethoxy]-1-(2,2,2-trifluoroethyl)-1H-pyrazol-3-yl]butanoic acid [Example 27]"
